Experimental data as given in ChEMBL document CHEMBL5303304, “EUbOPEN Chemogenomics Library - IncuCyte” (2023).
Where “and” joins values, the source holds several entries; their conditions need not be identical. Equal entries are not always repeated.

Legend:
Assay type in all cases: toxicity, cell-based
Fibroblast = assay: Incucyte cell viability with human fibroblast; settings: 10 µM, compound concentration 10 uM
HEK-293T = assay: Incucyte cell viability with HEK293T; settings: human, 10 µM, compound concentration 10 uM
U2OS = assay: Incucyte cell viability with U2OS; settings: human, 10 µM, compound concentration 10 uM
Also: unitless GR value; below 1 slowed growth and below 0 cell loss.

Row | SMILES | Growth Rate (Fibroblast; 0 h, replicate number 1) | Growth Rate (Fibroblast; 18 h, replicate number 2) | Growth Rate (Fibroblast; 24 h, replicate number 1) | Growth Rate (HEK-293T; 0 h, replicate number 1) | Growth Rate (HEK-293T; 6 h, replicate number 2) | Growth Rate (U2OS; 12 h, replicate number 1) | Growth Rate (U2OS; 18 h, replicate number 1) | Growth Rate (U2OS; 24 h, replicate number 1) | Growth Rate (U2OS; 24 h, replicate number 2) | Growth Rate (Fibroblast; 18 h, replicate number 1) | Growth Rate (Fibroblast; 24 h, replicate number 2) | Growth Rate (HEK-293T; 24 h, replicate number 2) | Growth Rate (U2OS; 0 h, replicate number 1) | Growth Rate (U2OS; 18 h, replicate number 2) | Growth Rate (Fibroblast; 6 h, replicate number 2) | Growth Rate (HEK-293T; 0 h, replicate number 2) | Growth Rate (U2OS; 0 h, replicate number 2) | Growth Rate (Fibroblast; 0 h, replicate number 2) | Growth Rate (Fibroblast; 6 h, replicate number 1) | Growth Rate (HEK-293T; 12 h, replicate number 2) | also measured
1 | CC(C)[C@@H]1CC[C@@H](C)C[C@@H]1P(=O)(c1ccccc1)c1ccccc1 | 0.25 | 0.92 | 0.9 | 0.49 | 0.56 | 0.44 | 0.78 | 0.74 | 1 |  |  |  |  |  |  |  |  |  |  |  | Growth Rate (U2OS; 6 h, replicate number 1): 0.44; Growth Rate (U2OS; 12 h, replicate number 2): 0.96
2 | N[C@@H](Cn1cc(F)c(=O)[nH]c1=O)C(=O)O |  | 0.82 | 0.97 | 0.81 | 0.86 |  |  |  | 0.83 | 0.16 | 0.99 | 0.96 | 0.45 | 0.8 |  |  |  |  |  |  | Growth Rate (Fibroblast; 12 h, replicate number 1): -0.98; Growth Rate (HEK-293T; 6 h, replicate number 1): 0.82; Growth Rate (HEK-293T; 12 h, replicate number 1): 0.99; Growth Rate (U2OS; 6 h, replicate number 2): 0.7; Growth Rate (U2OS; 12 h, replicate number 2): 0.81
3 | CN1CC[C@@]23CCCC[C@@H]2[C@@H]1Cc1ccc(O)cc13.O=C(O)C(O)C(O)C(=O)O | 0.67 | 0.13 |  | 0.54 |  |  |  |  |  | 0.72 | 0.19 |  |  |  | -0.93 | 0.37 | -0.41 |  |  |  | Growth Rate (Fibroblast; 12 h, replicate number 1): -0.94; Growth Rate (Fibroblast; 12 h, replicate number 2): -0.3
4 | COc1ccc(CC(=O)NCc2ccccc2-c2ccccc2C(=O)NCc2ccc(F)cc2F)cc1 |  | 0.88 |  | 0.52 |  |  |  | 0.89 |  | 0.19 | 0.91 |  | -0.79 |  |  |  | -0.96 | -0.36 |  |  | 
5 | CC(C)c1ccc(/C=N/NC(=O)c2ccc(O)cc2)cc1 |  | 0.57 |  | 0.78 | 0.04 |  |  |  | 0.98 |  | 0.46 | 0.63 | -0.47 |  | 0.53 |  | -0.95 |  | -0.99 | 0.36 | Growth Rate (Fibroblast; 12 h, replicate number 2): 0.42; Growth Rate (HEK-293T; 6 h, replicate number 1): 0.39; Growth Rate (HEK-293T; 12 h, replicate number 1): 0.85; Growth Rate (HEK-293T; 18 h, replicate number 1): 0.85; Growth Rate (HEK-293T; 18 h, replicate number 2): 0.58; Growth Rate (HEK-293T; 24 h, replicate number 1): 0.81
6 | Cc1[nH]nc2ccc(-c3cncc(OCC(N)Cc4ccccc4)c3)cc12 (centres undefined) |  |  |  | -0.76 |  |  |  | 0.35 | 0.28 |  | 0.73 | 0.21 |  | 0.7 |  | -0.85 |  | -0.26 | -1 |  | Growth Rate (HEK-293T; 18 h, replicate number 2): 0.44; Growth Rate (HEK-293T; 24 h, replicate number 1): 0.9
7 | CCn1c(-c2ccncc2)cc2c1CCNC2=O | -0.22 |  |  | -0.57 | -0.3 | 0.78 | 0.29 | 0.13 | 0.08 |  |  | -0.39 | -0.56 | 0.12 |  | -0.66 | 0.39 |  | -0.99 | -0.55 | Growth Rate (HEK-293T; 6 h, replicate number 1): 0.22; Growth Rate (HEK-293T; 12 h, replicate number 1): -0.65; Growth Rate (HEK-293T; 18 h, replicate number 1): -0.57; Growth Rate (HEK-293T; 18 h, replicate number 2): -0.47; Growth Rate (HEK-293T; 24 h, replicate number 1): -0.56; Growth Rate (U2OS; 12 h, replicate number 2): 0.44
8 | O=C(O)c1ccc(S(=O)(=O)N(Cc2ccc(OC(F)(F)F)cc2)c2ncc(C(F)(F)F)cc2Cl)cc1 | 0.4 |  | 0.93 | 0.66 | 0.33 |  |  |  | 0.85 | 0.16 |  | 0.93 |  | 0.93 |  |  |  | -0.5 | 0.15 | 0.79 | Growth Rate (HEK-293T; 18 h, replicate number 2): 0.81; Growth Rate (U2OS; 6 h, replicate number 2): 0.99; Growth Rate (U2OS; 12 h, replicate number 2): 0.75
9 | Nc1nc2cc(-c3cc(Cl)ccc3Oc3cc(F)c(S(=O)(=O)Nc4ncns4)cc3F)ccc2[nH]1 |  |  | 0.45 | 0.66 |  | 0.84 | 0.76 | 0.89 |  |  | 0.9 |  | -0.72 |  |  | 0.52 | 0.2 | -0.38 | -0.93 |  | Growth Rate (U2OS; 6 h, replicate number 1): 0.51
10 | COc1cc(Nc2ccc([N+](=O)[O-])cc2C(=O)O)cc2ccccc12 |  | 0.45 | 0.68 | 0.41 |  |  |  | 0.98 |  | -0.31 | 0.63 |  | 0.77 |  | -0.6 | 0.13 | -0.1 |  |  |  | Growth Rate (Fibroblast; 12 h, replicate number 2): 0.4
11 | CC(C)C[C@H](NC(=O)c1cc2ccccc2s1)C(=O)N1CCN(C(=O)[C@H](CO)NS(=O)(=O)c2ccc(Cl)cc2Cl)CC1 |  | 0.68 | 0 | 0.99 | -0.01 | 0.93 | 0.95 |  | 0.66 | -0.18 | 0.65 | 0.46 |  | 0.58 | -0.86 |  | -1 |  |  | 0.27 | Growth Rate (Fibroblast; 12 h, replicate number 1): -0.95; Growth Rate (Fibroblast; 12 h, replicate number 2): 0.01; Growth Rate (HEK-293T; 6 h, replicate number 1): -0.15; Growth Rate (HEK-293T; 12 h, replicate number 1): 0.69; Growth Rate (HEK-293T; 18 h, replicate number 1): 0.71; Growth Rate (HEK-293T; 18 h, replicate number 2): 0.38; Growth Rate (HEK-293T; 24 h, replicate number 1): 0.78; Growth Rate (U2OS; 6 h, replicate number 1): 0.27; Growth Rate (U2OS; 6 h, replicate number 2): 0.36; Growth Rate (U2OS; 12 h, replicate number 2): 0.51
12 | CN1C2CCCC1CC(Nc1ccccc1Br)C2 (centres undefined) | 0.86 | 0.95 |  | 0.87 | 0.99 |  |  |  |  |  | 0.92 | 0.99 |  |  | -0.45 |  | -0.9 | 0.67 | -0.98 |  | Growth Rate (Fibroblast; 12 h, replicate number 1): 0.42; Growth Rate (Fibroblast; 12 h, replicate number 2): 0.88
13 | CC1(C)OC(=O)c2ccc(Nc3ncc(-c4nnco4)c(N[C@H](CO)c4ccccc4)n3)cc21 |  |  |  | 0.28 |  | 0.78 | 0.44 | 0.47 | 0.62 |  |  | -0.02 |  | 0.69 |  | -0.28 | -0.4 | -0.49 | -1 | -0.01 | Growth Rate (HEK-293T; 12 h, replicate number 1): 0.23; Growth Rate (HEK-293T; 18 h, replicate number 1): 0.12; Growth Rate (HEK-293T; 18 h, replicate number 2): -0.01; Growth Rate (HEK-293T; 24 h, replicate number 1): 0.09
14 | Clc1ccccc1C(c1ccccc1)(c1ccccc1)n1cccn1 |  |  |  | 0.43 | 0.9 | 0.78 | 1 | 0.91 |  | 0.46 | 0.54 |  |  | 0.94 |  | 0.27 and 0.15 | -0.86 |  | 0.64 |  | Growth Rate (Fibroblast; 12 h, replicate number 2): 0.39; Growth Rate (HEK-293T; 6 h, replicate number 1): 0.05; Growth Rate (HEK-293T; 12 h, replicate number 1): 0.26; Growth Rate (HEK-293T; 18 h, replicate number 1): 0.83; Growth Rate (HEK-293T; 24 h, replicate number 1): 0.89; Growth Rate (U2OS; 6 h, replicate number 1): 0.24; Growth Rate (U2OS; 6 h, replicate number 2): 0.65; Growth Rate (U2OS; 12 h, replicate number 2): 0.9
15 | Cc1ccccc1C1C(=O)N(C)c2cnc(Nc3ccc(S(N)(=O)=O)cc3)nc2N1C (centres undefined) | -0.58 |  |  | -0.37 |  |  |  |  |  |  |  |  | -0.73 |  |  | -0.88 | -0.83 | -0.9 | -1 |  | 
16 | CCOC(=O)c1ncn2c1[C@@H]1CCCN1C(=O)c1cc(OC)ccc1-2 | 0.48 |  | 0.63 | 0.49 |  | 0.92 | 0.9 | 0.81 |  | 0.09 |  | 0.95 | -0.46 |  | 0.2 | 1 | -0.82 | -0.85 | 0.02 | 0.89 | Growth Rate (HEK-293T; 18 h, replicate number 1): 0.83; Growth Rate (HEK-293T; 24 h, replicate number 1): 0.82; Growth Rate (U2OS; 6 h, replicate number 1): 0.4
17 | CC1=NC(C=C2C(=O)Nc3ccc(F)cc32)=C(C)C1C(=O)NCC(O)CN1CCOCC1 (centres undefined) | 0.4 |  |  | 0.76 |  |  |  |  |  |  |  | 0.99 |  |  |  | -0.67 | -0.99 |  | -0.99 |  | 
18 | Cc1cccc([C@H]2CC[C@@H](N3CCN(c4cccnc4)CC3)CC2)c1.O=C(O)C(F)(F)F.O=C(O)C(F)(F)F |  |  | 0.58 | 0.98 | 0.45 | 1 | 0.97 | 0.93 |  |  | 0.94 | 0.79 |  |  | -0.32 |  | -0.63 | -0.88 | -0.37 | 0.66 | Growth Rate (HEK-293T; 18 h, replicate number 2): 0.73
19 | O=C(/N=c1\sccn1Cc1ccccc1)c1c[nH]c2ncccc12 |  |  |  | -0.78 |  |  |  |  |  |  |  |  |  |  |  | -0.86 | -0.96 |  | -1 |  | 
